# Target: T1, PDI A3 (Homo sapiens, UniProt P30101)
# T1 construct: purchased Mybiosource; host or cells: E. coli
# T1 sequence (P30101 25-505): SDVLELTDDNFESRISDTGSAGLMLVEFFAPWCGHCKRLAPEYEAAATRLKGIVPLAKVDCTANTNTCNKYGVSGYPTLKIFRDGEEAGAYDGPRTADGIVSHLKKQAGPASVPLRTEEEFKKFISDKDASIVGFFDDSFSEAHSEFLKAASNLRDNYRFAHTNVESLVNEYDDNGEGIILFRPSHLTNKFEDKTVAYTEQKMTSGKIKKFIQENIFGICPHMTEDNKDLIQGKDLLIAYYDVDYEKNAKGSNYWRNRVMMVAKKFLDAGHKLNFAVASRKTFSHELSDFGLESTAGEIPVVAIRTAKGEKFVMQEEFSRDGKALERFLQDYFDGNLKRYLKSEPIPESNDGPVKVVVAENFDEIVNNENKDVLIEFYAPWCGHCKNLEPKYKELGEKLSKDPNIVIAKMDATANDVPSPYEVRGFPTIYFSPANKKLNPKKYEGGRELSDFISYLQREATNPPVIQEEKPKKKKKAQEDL
# Assay: PDI A3 inhibition, insulin turbidimetric assay
# Format: biochemical
# Details: 10 ug/ml PDI A3, incubated 60 min at 37° C., turbidity at 650 nm; read-out: Inhibition of PDI A3 (EC 50)
# Description: The inhibitory effects compounds of invention on activity of PDIA3 was assess based on the insulin turbidimetric assay. Enzymatic activity of PDIA3 was confirmed by measuring the turbidity increase at 650 nm due to insulin reduction. The assay mixture was prepared by addition 10 ug/ml PDI A3 (E. coli recombinant protein; Mybiosource), […] phosphate buffer (pH7.6), 1 mM EDTA, 0.087 mM DTT and with or without tested compound and was incubated for 60 min, at 37° C. Reaction was started by addition of insulin and DTT. Final concentration of insulin and DTT in assay mixture were 0.15 mMv and 0.174 mMv, respectively. Turbidity was detected at 650 nm against reference samples without PDJs. The measurements were performed at 650 nm using 120-s recordings.
row,Structure (SMILES),EC50 [µM]
1,"COC(=O)C1CN1S(=O)(=O)c1ccc(C)cc1 (stereo not shown) [Compound C-3161, Methyl 1-(p-tolylsulfonyl)aziridine-2-carboxylate]",27
2,"COC(=O)C1CN1S(=O)(=O)c1ccc([N+](=O)[O-])cc1 (stereo not shown) [Compound C-3212, Methyl 1-(4-nitrophenyl)sulfonylaziridine-2-carboxylate]",32
3,"Cc1ccc(S(=O)(=O)N2CC2C(N)=O)cc1 (stereo not shown) [Compound C-3220, 1-(p-Tolylsulfonyl)aziridine-2-carboxamide]",22
4,"COC(=O)C1CN1S(=O)(=O)c1ccc(C(F)(F)F)cc1 (stereo not shown) [Compound C-3256, Methyl 1-[4-(trifluoromethyl)phenyl]sulfonylaziridine-2-carboxylate]",> 200
5,"CC(=O)C1CN1S(=O)(=O)c1ccc(C)cc1 (stereo not shown) [Compound C-3263, 1-[1-(p-Tolylsulfonyl)aziridin-2-yl]ethanone]",98
6,"CCCCCCCCCCCCc1ccc(S(=O)(=O)N2CC2C(=O)OC)cc1 (stereo not shown) [Compound C-3270, Methyl 1-(4-dodecylphenyl)sulfonylaziridine-2-carboxylate]",> 200
7,"CCCCc1ccc(S(=O)(=O)N2CC2C(C)=O)cc1 (stereo not shown) [Compound C-3272, 1-[1-(4-Butylphenyl)sulfonylaziridin-2-yl]ethanone]",43
8,"CCCCCc1ccc(S(=O)(=O)N2CC2C(=O)OC)cc1 (stereo not shown) [Compound C-3281, Methyl 1-(4-pentylphenyl)sulfonylaziridine-2-carboxylate]",> 200
9,"COC(=O)C1CN1S(=O)(=O)c1ccc(C)cc1F (stereo not shown) [Compound C-3297, Methyl 1-(2-fluoro-4-methyl-phenyl)sulfonylaziridine-2-carboxylate]",> 200
10,"COC(=O)C1CN1S(=O)(=O)c1cccc(C)c1 (stereo not shown) [Compound C-3303, Methyl 1-(m-tolylsulfonyl)aziridine-2-carboxylate]",> 200
11,"COC(=O)C1CN1S(=O)(=O)c1cccc(C(F)(F)F)c1 (stereo not shown) [Compound C-3305, Methyl 1-[3-(trifluoromethyl)phenyl]sulfonylaziridine-2-carboxylate]",> 200
12,"COC(=O)C1CN1S(=O)(=O)c1cccc2ccccc12 (stereo not shown) [Compound C-3311, Methyl 1-(1-naphthylsulfonyl)aziridine-2-carboxylate]",90
13,"Cc1ccc(S(=O)(=O)N2CC2C#N)cc1 (stereo not shown) [Compound C-3314, 1-(p-Tolylsulfonyl)aziridine-2-carbonitrile]",24
14,"COC(=O)C1CN1S(=O)(=O)c1ccc2[nH]c(=O)ccc2c1 (stereo not shown) [Compound C-3350, Methyl 1-[(2-oxo-1H-quinolin-6-yl)sulfonyl]aziridine-2-carboxylate]",48
15,"COC(=O)C1CN1S(=O)(=O)c1ccc(F)cc1F (stereo not shown) [Compound C-3353, Methyl 1-(2,4-difluorophenyl)sulfonylaziridine-2-carboxylate]",143
16,"COC(=O)C1CN1S(=O)(=O)c1ccc2oc(=O)ccc2c1 (stereo not shown) [Compound C-3355, Methyl 1-(2-oxochromen-6-yl)sulfonylaziridine-2-carboxylate]",61
17,"CN(C)C(=O)C1CN1S(=O)(=O)c1ccc(N(C)C)cc1 (stereo not shown) [Compound C-3357, 1-[4-(Dimethylamino)phenyl]sulfonyl-N,N-dimethyl-aziridine-2-carboxamide]",> 200

row,Structure (SMILES),EC50 [µM]
1,"CN(C)C(=O)C1CN1S(=O)(=O)c1cccc2cc(N(C)C)ccc12 (stereo not shown) [Compound C-3377, 1-[[6-(Dimethylamino)-1-naphthyl]sulfonyl]-N,N-dimethylaziridine-2-carboxamide]",4.3
2,"CCCCCCc1ccc(S(=O)(=O)N2CC2C(=O)NC)cc1 (stereo not shown) [Compound C-3380, 1-(4-Hexylphenyl)sulfonyl-N-methyl-aziridine-2-carboxamide]",37
3,"CN(C)C(=O)C1CN1S(=O)(=O)c1ccc(C2CCCCC2)cc1 (stereo not shown) [Compound C-3384, 1-(4-Cyclohexylphenyl)sulfonyl-N,N-dimethyl-aziridine-2-carboxamide]",11.7
4,"CN(C)C(=O)C1CN1S(=O)(=O)c1ccc(N(C)C)c2ccccc12 (stereo not shown) [Compound C-3385, 1-[[4-(Dimethylamino)-1-naphthyl]sulfonyl]-N,N-dimethylaziridine-2-carboxamide]",11.1
5,"CNc1ccc2cc(S(=O)(=O)N3CC3C(=O)OC)ccc2c1Cl (stereo not shown) [Compound C-3393, Methyl 1-[[5-chloro-6-(methylamino)-2-naphthyl]sulfonyl]aziridine-2-carboxylate]",27
6,"CN(C)C(=O)C1CN1S(=O)(=O)c1ccc2cc(N(C)C)ccc2c1 (stereo not shown) [Compound C-3398, 1-[[6-(Dimethylamino)-2-naphthyl]sulfonyl]-N,N-dimethylaziridine-2-carboxamide]",10.5
7,"CN(C)C(=O)C1CN1S(=O)(=O)c1ccc(F)cc1F (stereo not shown) [Compound C-3403, 1-(2,4-Difluorophenyl)sulfonyl-N,N-dimethyl-aziridine-2-carboxamide]",24
8,"CCCCCCc1ccc(S(=O)(=O)N2CC2C(=O)N2CCCC2)cc1 (stereo not shown) [Compound C-3511, [1-(4-Hexylphenyl)sulfonylaziridin-2-yl]-pyrrolidin-1-yl-methanone]",102
9,"NC(=O)C1CN1S(=O)(=O)c1ccccc1 (stereo not shown) [Compound C-3532, 1-(Benzenesulfonyl)aziridine-2-carboxamide]",9.3
10,"COC(=O)[C@@H]1CN1S(=O)(=O)c1ccc(C)cc1 (stereo partly drawn) [Compound C-3535, Methyl (2S)-1-(p-tolylsulfonyl)aziridine-2-carboxylate]",6.8
11,"CCOC(=O)C1CN1S(=O)(=O)c1ccc(C)cc1 (stereo not shown) [Compound C-3537, Ethyl 1-(p-tolylsulfonyl)aziridine-2-carboxylate]",30
12,"COC(=O)[C@@H]1CN1S(=O)(=O)c1cccc2cc(N(C)C)ccc12 (stereo partly drawn) [Compound C-3548, Methyl (2S)-1-[[6-(dimethylamino)-1-naphthyl]sulfonyl]aziridine-2-carboxylate]",5.3
13,"COC(=O)C1CN1S(=O)(=O)c1cccnc1 (stereo not shown) [Compound C-3559, Methyl 1-(3-pyridylsulfonyl)aziridine-2-carboxylate]",18.6
14,"NC(=O)C1CN1S(=O)(=O)c1cccnc1 (stereo not shown) [Compound C-3562, 1-(3-pyridylsulfonyl)aziridine-2-carboxamide]",56
15,"COC(=O)[C@H]1CN1S(=O)(=O)c1cccc2cc(N(C)C)ccc12 (stereo partly drawn) [Compound C-3570, Methyl (2R)-1-[[6-(dimethylamino)-1-naphthyl]sulfonyl]aziridine-2-carboxylate]",68.4
16,"CC(C)(C)c1ccc(S(=O)(=O)N2CC2C(N)=O)cc1 (stereo not shown) [Compound C-3591, 1-(4-tert-Butylphenyl)sulfonylaziridine-2-carboxamide]",29

# Tested on: MCF-7
# Assay: MTT antiproliferative assay, 48 h, MCF-7
# Format: cell-based, human
# Details: Homo sapiens, MCF7, 48-hour exposition, read-out: Cytotoxicity, IC50, μM MCF-7
# Description: (§1) Anticancer activity of compounds of invention, PDI A3-inhibitors has been tested in vitro in classical antiproliferative assay in various cancer cells lines. Monolayer tumor cell lines MDA-MB-231 (human mammary breast adenocarcinoma), MCF-7 (human breast adenocarcinoma, estrogen-positive), HT-1080 (human fibrosarcoma) and Caco-2 (human colon adenocarcinoma) were cultured in standard medium DMEM (Dulbecco's modified Eagle's medium) (“Sigma”) supplemented with 10% foetal bovine serum (“Sigma”). About 2000-4000 cells per well (depending on line nature) were placed in 96-well plates and after 24 h compounds were added to the wells. Untreated cells were used as a control. The plates were incubated for 48 h, 37° C., 5% CO2. The number of surviving cells was determined using 3-(4,5-dimethylthiazol-2-yl)-2,5-diphenyltetrazolinium bromide (MTT). MTT-test: after incubating culture medium was removed and 200 μL fresh medium with 20 μL MTT (2 mg/mL in HBSS) was added in each well of the plate. After incubation (3 hr., 37° C., 5% CO2), the medium with MTT was removed and 200 μL DMSO were added at once to each sample. The samples were tested at 540 nm on Thermo Scientific Multiskan EX microplate photometer. The half-maximal inhibitory concentration (IC50) of each compound was calculated using Graph Pad Prism® 3.0.
row,Structure (SMILES),IC50 [µM]
1,"CCCCCCc1ccc(S(=O)(=O)N2CC2C(=O)OC)cc1 (stereo not shown) [Compound C-3287, Methyl 1-(4-hexylphenyl)sulfonylaziridine-2-calboxylate]",123 ± 17
2,"COC(=O)C1CN1S(=O)(=O)c1ccc(C(C)(C)C)cc1 (stereo not shown) [Compound C-3290, Methyl 1-(4-tert-butylphenyl)sulfonylaziridine-2-carboxylate]",29 ± 4
3,"CN(C)C(=O)C1CN1S(=O)(=O)c1cccc2cc(N(C)C)ccc12 (stereo not shown) [Compound C-3377, 1-[[6-(Dimethylamino)-1-naphthyl]sulfonyl]-N,N-dimethylaziridine-2-carboxamide]",4.8 ± 0.1

# Tested on: MDA-MB-231
# Assay: MTT antiproliferative assay, 48 h, MDA-MB-231
# Format: cell-based, human
# Details: Homo sapiens, MDA-MB-231, 48-hour exposition, read-out: Cytotoxicity, IC50, μM MDA-MB-231
# Description: as §1
row,Structure (SMILES),IC50 [µM]
1,"COC(=O)C1CN1S(=O)(=O)c1ccccc1C (stereo not shown) [Compound C-3320, Methyl 1-(o-tolylsulfonyl)aziridine-2-carboxylate]",380 ± 15

# Tested on: not given
# Assay: not given
# Details: not given
row,Structure (SMILES),melting point [°C]
1,"COC(=O)C1CN1S(=O)(=O)c1ccc([N+](=O)[O-])cc1 (stereo not shown) [Compound C-3212, Methyl 1-(4-nitrophenyl)sulfonylaziridine-2-carboxylate]",106 to 108
2,"NC(=O)C1CN1S(=O)(=O)c1ccc(N)cc1 (stereo not shown) [Compound C-3218, 1-(4-Aminophenyl)sulfonylaziridine-2-carboxamide]",139 to 141
3,"COC(=O)C1CN1S(=O)(=O)c1ccc2[nH]c(=O)ccc2c1 (stereo not shown) [Compound C-3350, Methyl 1-[(2-oxo-1H-quinolin-6-yl)sulfonyl]aziridine-2-carboxylate]",139 to 141
4,"COC(=O)C1CN1S(=O)(=O)c1ccc2oc(=O)ccc2c1 (stereo not shown) [Compound C-3355, Methyl 1-(2-oxochromen-6-yl)sulfonylaziridine-2-carboxylate]",42 to 44
5,"CNc1ccc2cc(S(=O)(=O)N3CC3C(=O)OC)ccc2c1Cl (stereo not shown) [Compound C-3393, Methyl 1-[[5-chloro-6-(methylamino)-2-naphthyl]sulfonyl]aziridine-2-carboxylate]",170 to 172
6,"NC(=O)C1CN1S(=O)(=O)c1cccnc1 (stereo not shown) [Compound C-3562, 1-(3-pyridylsulfonyl)aziridine-2-carboxamide]",147 to 149

# — patent publication US20230069886A1, “AROMATIC SULPHONAMIDES DERIVATIVES THAT INHIBITS PDI A3, THEIR SYNTHESIS AND USE” (Uniwersytet Jagiellonski, priority 2020, published 2023)
